Data taken from the supplement of paper PMC10307832.

Columns and labels:
Assay in all cases: relative viability (nuclei count vs DMSO), 5 days (fraction); higher = more cells survive
[1] = compound: C(C(=O)C(=O)O)Br [Bromopyruvate] + CC(=O)c1c(C)c2cnc(Nc3ccc(N4CCNCC4)cn3)nc2n(C2CCCC2)c1=O [Palbociclib] (partner 0.5 µM)
Procedure, shortened: (§1)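 A single step with final 0.05% Triton X-100, 1% formaldehyde and 1 ug/ml Hoechst fixed the cells and stained nuclei 5 days after treatment. Lung cancer cell lines in 1536-well plates had been treated by pin tool the day after seeding with one drug alone or a fixed anchor-drug dose plus five library-drug doses (not always all listed) in √10 steps, and nuclei were counted on 4× images. Relative viability is the ratio of nuclei in treated wells to nuclei in vehicle wells, taken as the median of duplicate plates.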

[2] = compound: CC(O)(CS(=O)(=O)c1ccc(F)cc1)C(=O)Nc1ccc(C#N)c(C(F)(F)F)c1 [Bicalutamide] + CC(=O)c1c(C)c2cnc(Nc3ccc(N4CCNCC4)cn3)nc2n(C2CCCC2)c1=O [Palbociclib] (partner 0.5 µM)
Procedure, shortened: as §1

[3] = compound: CC(O)(CS(=O)(=O)c1ccc(F)cc1)C(=O)Nc1ccc(C#N)c(C(F)(F)F)c1 [Bicalutamide] + CS(=O)(=O)N1CCN(Cc2cc3nc(-c4cccc5[nH]ncc45)nc(N4CCOCC4)c3s2)CC1 [Pictilisib] (partner 1 µM)
Procedure, shortened: as §1

Bicalutamide + Olaparib = compound: CC(O)(CS(=O)(=O)c1ccc(F)cc1)C(=O)Nc1ccc(C#N)c(C(F)(F)F)c1 [Bicalutamide] + O=C(c1cc(Cc2n[nH]c(=O)c3ccccc23)ccc1F)N1CCN(C(=O)C2CC2)CC1 [Olaparib] (partner 8 µM)
Procedure, shortened: as §1

Row | Cell Line | relative viability ([1]; first compound 1 µM) | relative viability ([1]; first compound 3.162 µM) | relative viability ([1]; first compound 10 µM) | relative viability ([1]; first compound 31.62 µM) | relative viability ([1]; first compound 100 µM) | relative viability ([2]; first compound 0.08 µM) | relative viability ([2]; first compound 0.253 µM) | relative viability ([2]; first compound 0.8 µM) | relative viability ([2]; first compound 2.53 µM) | relative viability ([3]; first compound 0.08 µM) | relative viability ([3]; first compound 0.253 µM) | relative viability ([3]; first compound 0.8 µM) | relative viability ([3]; first compound 2.53 µM) | relative viability (Bicalutamide + Olaparib; first compound 0.08 µM) | relative viability (Bicalutamide + Olaparib; first compound 0.253 µM) | relative viability (Bicalutamide + Olaparib; first compound 0.8 µM) | relative viability (Bicalutamide + Olaparib; first compound 2.53 µM)
1 | H3255 | 0.314 | 0.31 | 0.297 | 0.308 | 0.309 | 0.35 | 0.324 | 0.308 | 0.302 | 0.521 | 0.376 | 0.48 | 0.462 | 0.564 | 0.558 | 0.554 | 0.551
2 | HARA | 0.254 | 0.283 | 0.296 | 0.259 | 0.261 | 0.246 | 0.262 | 0.329 | 0.242 | 0.462 | 0.413 | 0.566 | 0.316 | 0.871 | – | 1.22 | 0.878
3 | HCC-15 | 0.654 | 0.677 | 0.846 | 0.771 | 0.741 | 0.727 | 0.501 | 0.79 | 0.767 | 0.714 | 0.699 | 0.951 | 0.77 | 0.77 | 0.685 | 0.769 | 0.657
4 | HCC-44 | 0.985 | 0.912 | 0.944 | 1.01 | 0.991 | 0.953 | 1.03 | 1.04 | 0.944 | 0.702 | 0.534 | 0.727 | 0.479 | 1.01 | 1.02 | 1.02 | 1.01
5 | HCC-78 | 0.446 | 0.471 | 0.455 | 0.514 | 0.407 | 0.464 | 0.513 | 0.499 | 0.476 | 0.202 | 0.179 | 0.208 | 0.169 | 0.709 | 0.651 | 0.889 | 0.766
6 | HCC-366 | 0.405 | 0.361 | 0.43 | 0.395 | 0.38 | 0.368 | 0.383 | 0.583 | 0.359 | 0.124 | 0.101 | 0.147 | 0.0426 | 0.361 | 0.323 | 0.444 | 0.286
7 | HCC-827 | 0.434 | 0.542 | 0.472 | 0.541 | 0.517 | 0.499 | 0.389 | 0.496 | 0.476 | 1.01 | 0.85 | 1.1 | 1.04 | 0.63 | 0.548 | 0.704 | 0.6
8 | HOP-62 | 0.432 | 0.443 | 0.416 | 0.343 | 0.341 | 0.47 | 0.464 | 0.566 | 0.502 | 0.971 | 0.806 | 0.998 | 0.614 | 0.736 | 0.38 | 0.388 | 0.349
9 | LC-2-ad | 0.528 | 0.487 | 0.466 | 0.488 | 0.499 | 0.475 | 0.473 | 0.464 | 0.516 | 0.536 | 0.459 | 0.637 | 0.502 | 0.758 | 0.713 | 0.683 | 0.697
10 | LCLC-97TM1 | 0.203 | 0.21 | 0.276 | 0.239 | 0.214 | 0.227 | 0.216 | 0.3 | 0.225 | 0.256 | 0.206 | 0.228 | 0.199 | 0.356 | 0.363 | 0.434 | 0.507
11 | LCLC-103H | 0.505 | 0.486 | 0.455 | 0.415 | 0.528 | 0.467 | 0.478 | 0.53 | 0.51 | 0.692 | 0.444 | 0.673 | 0.544 | 0.775 | 0.785 | 0.835 | 0.75
12 | LK-2 | 0.688 | 0.858 | 0.797 | 0.637 | 0.678 | 0.665 | 0.511 | 0.783 | 0.63 | 0.591 | 0.442 | 0.754 | 0.667 | 0.629 | 0.524 | 1.12 | 0.621
13 | LOU-NH91 | 0.53 | 0.545 | 0.494 | 0.544 | 0.587 | 0.449 | 0.548 | 0.553 | 0.541 | 0.537 | 0.471 | 0.549 | 0.491 | 0.899 | 0.847 | 0.976 | 0.955
14 | LU99A | 0.404 | 0.414 | 0.478 | 0.493 | 0.2 | 0.386 | 0.36 | 0.531 | 0.393 | 0.295 | 0.321 | 0.364 | 0.209 | 0.268 | 0.225 | 0.259 | 0.248
15 | LXF-289 | 0.625 | 0.649 | 0.629 | 0.637 | 0.638 | 0.596 | 0.543 | 0.614 | 0.592 | 0.759 | 0.728 | 0.855 | 0.757 | 1.04 | 1.08 | 1.18 | 1.01
16 | NCI-H23 | 0.466 | 0.482 | 0.601 | 0.572 | 0.387 | 0.529 | 0.503 | 0.515 | 0.471 | 0.476 | 0.446 | 0.633 | 0.378 | 0.342 | 0.3 | 0.323 | 0.341
17 | NCI-H322M | 0.463 | 0.438 | 0.447 | 0.421 | 0.454 | 0.515 | 0.482 | 0.464 | 0.524 | 0.469 | 0.53 | 0.573 | 0.55 | 0.851 | 0.741 | 0.789 | 0.768
18 | NCI-H358 | 0.113 | 0.132 | 0.168 | 0.127 | 0.142 | 0.147 | 0.141 | 0.14 | 0.125 | 0.385 | 0.361 | 0.301 | 0.303 | 0.664 | 0.519 | 0.706 | 0.595
19 | NCI-H441 | 0.242 | 0.242 | 0.256 | 0.222 | 0.255 | 0.33 | 0.142 | 0.24 | 0.202 | 0.594 | – | 0.513 | 0.426 | 0.639 | 0.609 | 0.626 | 0.481
